Experimental data taken from publication PMC10331583, “Control of fibrosis with enhanced safety via asymmetric inhibition of prolyl‐tRNA synthetase 1” (EMBO Molecular Medicine, 2023).
pIC50: −log10 of the molar value. Values joined by “and” are separate entries in the source; they are usually repeats but may differ in a detail not shown here. Identical values can stand only once.

Experiments:
[1] = system: phosphorylation of SMAD2; test: Phosphorylation of SMAD2 (TGF‐β pathway), immunoblot; assay type: cell-based, human; conditions: 15 h; for Relative ratio of p-SMAD2/SMAD2, average / Relative ratio of p-SMAD2/SMAD2: + TGF-β; for Relative ratio of p-SMAD2/SMAD2: single experiments
Experimental: (§1) The levels of proteins were determined by immunoblot assay. […] The lowest concentration at which protein levels started to decrease was normalized by IC50 values for collagen level and used as the y‐axis value. […] The slope and R^2 value were calculated using GraphPad Prism 7.0. […] The activation of the TGF‐β pathway was determined by monitoring the phosphorylation of SMAD2. Immunoblot images are representative of three biologically independent experiments. • The band intensities of the immunoblot images in (C) were quantified using ImageJ (n = 3; One‐way ANOVA; *P < 0.05, **P < 0.01, ***P < 0.001; mean ± SEM). Source data are available online for this figure.

[2] = system: C57BL/6 mice; test: Bleomycin‐induced lung fibrosis, therapeutic model 2 (compounds from 2 weeks after bleomycin); assay type: in vivo; conditions: model 2, drug administration from day 14
Experimental: To examine therapeutic efficacy of DWN12088, all experiments were conducted following the international guidelines on the ethical use of experimental animals and approved by the Institutional Animal Care and Use Committee of Daewoong Pharmaceutical (IACUC‐21‐014). C57BL/6 mice (7–8‐week‐old, male, obtained from Orient Bio) were anesthetized with Zoletil and injected intratracheally with 100 μl bleomycin (2 units/kg) (Merck, B8416) to induce lung fibrosis. A group of disease‐free mice (“untreated”) were injected with PBS instead of bleomycin. After a week, mice treated with bleomycin were randomized to (i) vehicle (saline), (ii) HF 0.05 mg/kg, (iii) HF 0.1 mg/kg, and (iv) DWN12088 10 mg/kg groups (n = 5 for each group) according to their body weight. The drugs were orally administered once daily for 2 weeks, and then the outcome was analyzed. For the experiments testing the effect of the compounds 2 weeks after bleomycin challenge, the experiment was approved by IACUC of Daewoong Pharmaceutical (IACUC‐22‐009). […]
The collagen contents of lung tissues were measured using Sircol™ soluble collagen assay (Biocolor Ltd., S1000) following the manufacturer's instructions. […] Tissue extracts were incubated with Sirius red dye, and the absorbance was determined at 540 nm using a spectrophotometer. […]

[3] = Two‐week repeated‐dose toxicity study, HF versus DWN12088; assay type: in vivo, mice; conditions: male, ICR (CrljOri: CD1), mouse, in vivo; oral once daily for 2 weeks, ICR mice
Experimental: (§2) To compare the in vivo toxicity of HF and DWN12088, all experiments were conducted following the international guidelines on the ethical use of experimental animals and approved by the Institutional Animal Care and Use Committee of KNOTUS (KNOTUS IACUC 21‐KE‐250 and KNOTUS IACUC 21‐KE‐359). ICR (CrljOri: CD1) mice (7‐week‐old, male, obtained from Koatech) were randomized (n = 6 for each group) and then orally administered with the indicated amounts of HF or DWN12088 once daily for 2 weeks. In the high‐dose group, the dose of DWN12088 was reduced from 120 mg/kg to 90 mg/kg from day 6. […] Body weight was measured at day 1, 2, 3, 4, 5, 8, 14, and 15.
(§3) After administering the drugs for 2 weeks, mice were fasted overnight and anesthetized with isoflurane. Blood samples were collected in EDTA‐coated tubes, and the following parameters were determined using a hematology analyzer (ADVIA 2120, SIEMENS, USA); red blood cell, platelet count, hematocrit, white blood cell, red cell distribution width, hemoglobin concentration distribution width, hemoglobin concentration, neutrophil, mean corpuscular volume, lymphocyte, mean cell hemoglobin, monocyte, mean cell hemoglobin concentration, eosinophil, mean platelet volume, basophil, reticulocytes, and large unstained cells.
(§4) For clinical chemistry, the remaining blood samples were incubated in a vacutainer tube with clot activator and then centrifuged to prepare serum. The following parameters were measured in the serum using a chemistry analyzer (7180, Hitachi, Japan) and electrolyte analyzer (AVL 9180, Roche, Switzerland); aspartate aminotransferase, albumin, alanine aminotransferase, albumin/globulin ratio, alkaline phosphatase, blood urea nitrogen, creatine phosphokinase, creatinine, total bilirubin, inorganic phosphorus, glucose, calcium, total cholesterol, sodium, triglyceride, potassium, total protein, and chloride.
(§5) After blood collection, blood was drained by incising the abdominal aorta and posterior vena cava, and all organs of the skin, brain, thoracic cavity, and abdominal cavity were observed. The relative weights of the lung, spleen, liver, heart, kidney, thymus, and testes were calculated by dividing the weight of each organ by the body weight. The experiments were conducted as non‐blind test.

[4] = system: ICR (CrljOri: CD1) mice; test: as above; assay type: in vivo
Experimental: as §2, §3, §4, §5

[5] = system: WI‐26 VA4 cells stably expressing EV (empty vector); test: Collagen ELISA in cells stably expressing EV; conditions: for Collagen level, average: average of 4 experiments; for Collagen level, single replicates: replicates of Experiments #1-#4
[6] = system: WI‐26 VA4 cells; test: Immunoblot of cellular protein levels with different proline content; assay type: cell-based, human; conditions: Fig 2A
Experimental: as §1

[7] = 120 ➔ 90 mg/kg (from day 6) oral once daily

O[C@H]1CCCN[C@@H]1CCCn1cnc2c(Cl)c(Cl)ccc21 [DWN12088]
Relative ratio of p-SMAD2/SMAD2, average ([1]; 0.2 μM): 0.76 | Relative ratio of p-SMAD2/SMAD2 ([1]; 0.2 μM): 0.61 and 0.94 and 0.72 | Relative ratio of p-SMAD2/SMAD2, average ([1]; 0.6 μM): 0.75 | Relative ratio of p-SMAD2/SMAD2 ([1]; 0.6 μM): 0.65 and 0.71 and 0.87 | Relative ratio of p-SMAD2/SMAD2, average ([1]; 2 μM): 0.70 | Relative ratio of p-SMAD2/SMAD2 ([1]; 2 μM): 0.48 and 0.69 and 0.92 | Relative ratio of p-SMAD2/SMAD2, average ([1]; 6 μM): 0.78 | Relative ratio of p-SMAD2/SMAD2 ([1]; 6 μM): 0.66 and 0.77 and 0.91 | Relative ratio of p-SMAD2/SMAD2, average ([1]; 20 μM): 0.41 | Relative ratio of p-SMAD2/SMAD2, average ([1]; 60 μM): 0.16 | SMAD2 phosphorylation ([1]; TGF‐β 2 ng/ml): reduced SMAD2 phosphorylation | fibrotic properties [2]: less apparent | NOAEL at 2 weeks [3]: 60 mg/kg | Hematology ↓ ([4]; 60 mg/kg oral once daily, 2 weeks): HGB, MCHC | Clinical chemistry ↑ [4, 7]: AST, ALT, ALP, GLU, BUN, CRE, IP, K^+ | Clinical chemistry ↓ [4, 7]: TP, TCHO | Clinical signs [4, 7]: Inanimation, hypothermia | Hematology ↓ [4, 7]: RBC, HGB, MCHC | Necropsy finding [4, 7]: • Pale liver (1/6) • Thymus atrophy (3/6) • Pale and large kidney (1/6) • Dark red contents in the stomach (1/6) | Organ weight ↑ [4, 7]: Kidney, liver | Organ weight ↓ [4, 7]: Spleen, thymus | Mortality: Terminal sacrifice ([4]; 120 ➔ 90 mg/kg (from day 6) oral once daily, days 2, 5, 6 and 12): Terminal sacrifice: 4/6 (Each animal on days 2, 5, 6, and 12) | reduction in body weight ([4]; all the tested doses): did not show weight loss | NOAEL of DWN12088 relative to that of HF ([4]; male, ICR (CrljOri: CD1), mouse, in vivo, 2 weeks): more than 160 times | CC50/collagen IC50 ([5]; EV cells): 12.55 | Relative (CC50)/(collagen IC50) ([5]; EV cells (reference)): 1.00 | pIC50 ([5]; Homo sapiens, WI26VA4, read-out: IC50, collagen level): 5.72 | Collagen level, average ([5]; WI-26 VA4 EV, 30 nM): 106.29 % of control | Collagen level, single replicates ([5]; WI-26 VA4 EV, 30 nM): 103.80 % of control and 93.68 % of control and 118.18 % of control and 101.32 % of control and 113.71 % of control and 100.49 % of control and 110.94 % of control and 125.36 % of control and 99.68 % of control and 91.65 % of control and 118.14 % of control and 98.48 % of control | Collagen level, average ([5]; WI-26 VA4 EV, 100 nM): 97.93 % of control | Collagen level, single replicates ([5]; WI-26 VA4 EV, 100 nM): 104.52 % of control and 100.73 % of control and 92.07 % of control and 94.49 % of control and 97.76 % of control and 98.74 % of control and 108.25 % of control and 102.28 % of control and 98.65 % of control and 91.35 % of control and 85.38 % of control and 100.91 % of control | Collagen level, average ([5]; WI-26 VA4 EV, 300 nM): 81.48 % of control | Collagen level, single replicates ([5]; WI-26 VA4 EV, 300 nM): 91.09 % of control and 79.16 % of control and 74.69 % of control and 82.43 % of control and 80.75 % of control and 70.25 % of control and 88.16 % of control and 89.14 % of control and 75.64 % of control and 84.11 % of control and 76.95 % of control and 85.36 % of control | Collagen level, average ([5]; WI-26 VA4 EV, 1000 nM): 68.39 % of control | Collagen level, single replicates ([5]; WI-26 VA4 EV, 1000 nM): 76.13 % of control and 68.91 % of control and 67.97 % of control and 76.57 % of control and 67.70 % of control and 49.07 % of control and 76.54 % of control and 74.06 % of control and 46.15 % of control and 70.23 % of control and 69.64 % of control and 77.72 % of control | Collagen level, average ([5]; WI-26 VA4 EV, 3000 nM): 47.79 % of control | Collagen level, single replicates ([5]; WI-26 VA4 EV, 3000 nM): 46.50 % of control and 50.68 % of control and 52.48 % of control and 46.12 % of control and 48.12 % of control and 44.47 % of control and 46.33 % of control and 45.40 % of control and 47.63 % of control and 51.25 % of control and 49.30 % of control and 45.24 % of control | Collagen level, average ([5]; WI-26 VA4 EV, 10000 nM): 13.92 % of control | Collagen level, single replicates ([5]; WI-26 VA4 EV, 10000 nM): 13.28 % of control and 17.27 % of control and 16.23 % of control and 13.89 % of control and 12.05 % of control and 10.58 % of control and 12.31 % of control and 11.80 % of control and 11.03 % of control and 17.85 % of control and 17.12 % of control and 13.65 % of control | Collagen level, average ([5]; WI-26 VA4 EV, 30000 nM): 4.05 % of control | Collagen level, single replicates ([5]; WI-26 VA4 EV, 30000 nM): 4.24 % of control and 4.41 % of control and 4.74 % of control and 6.13 % of control and 2.65 % of control and 2.97 % of control and 3.41 % of control and 2.56 % of control and 2.84 % of control and 4.90 % of control and 3.97 % of control and 5.81 % of control | Collagen level, average ([5]; WI-26 VA4 EV, 100000 nM): 3.50 % of control | Collagen level, single replicates ([5]; WI-26 VA4 EV, 100000 nM): 2.77 % of control and 4.80 % of control and 4.00 % of control and 3.82 % of control and 3.27 % of control and 2.48 % of control and 2.45 % of control and 2.57 % of control and 2.65 % of control and 4.71 % of control and 3.89 % of control and 4.63 % of control | Collagen level, average ([5]; WI-26 VA4 EV, 300000 nM): 2.44 % of control | Collagen level, single replicates ([5]; WI-26 VA4 EV, 300000 nM): 2.49 % of control and 2.31 % of control and 2.89 % of control and 2.54 % of control | HillSlope, collagen level ([5]; WI-26 VA4 EV, four-parameter fit): -0.8641 | LogIC50, collagen level ([5]; WI-26 VA4 EV, log of concentration in nM, four-parameter fit): 3.281 | effective dose for decreasing general proteins (SMAD2, AIMP2, AMPKα, cyclin D1) compared with COL1A1 [6]: about 10 times
